Assay results taken from patent US6737383B1, “Herbicidal oxadiazolidines” (priority 1999, dated 2004).

Key:
bedstraw = assay: Test B pre/postemergence bedstraw; type: in vivo, Galium aparine
Outline: (§1)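 Herbicidal effect was estimated by eye on a ten-point control scale after plants spent twelve to sixteen days in a greenhouse following soil or foliar treatment. Foliar sprays targeted plants at one to four leaves; all doses were formulated in a non-phytotoxic solvent with surfactant.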

blackgrass = assay: Test B pre/postemergence blackgrass; type: in vivo, Alopecurus myosuroides
Outline: as §1

surinam grass = assay: Test B pre/postemergence surinam grass; type: in vivo, Brachiaria decumbens
Outline: as §1

cocklebur = assay: Test B pre/postemergence cocklebur; type: in vivo, Xanthium strumarium
Outline: as §1

corn = assay: Test B pre/postemergence corn; type: in vivo, Zea mays
Outline: as §1

crabgrass = assay: Test B pre/postemergence crabgrass; type: in vivo, Digitaria sanguinalis
Outline: as §1

rape = assay: Test B pre/postemergence rape; type: in vivo, Brassica napus
Outline: as §1

soybean = assay: Test B pre/postemergence soybean; type: in vivo, Glycine max
Outline: as §1

sugar beet = assay: Test B pre/postemergence sugar beet; type: in vivo, Beta vulgaris
Outline: as §1

velvetleaf = assay: Test B pre/postemergence velvetleaf; type: in vivo, Abutilon theophrasti
Outline: as §1

wheat = assay: Test B pre/postemergence wheat; type: in vivo, Triticum aestivum
Outline: as §1

wild oat = assay: Test B pre/postemergence wild oat; type: in vivo, Avena fatua
Outline: as §1

purple nutsedge = assay: Test B pre/postemergence purple nutsedge; type: in vivo, Cyperus rotundus
Outline: as §1

rice = assay: Test B flood test rice; type: in vivo, Oryza sativa; details: Pre-emergence
Outline: (§2)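 Flood test on plants grown to the 2-leaf stage; treated plants kept in greenhouse twelve to sixteen days, then visually rated against controls on a 0 (no effect) to 10 (complete control) scale.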

smallflower flatsedge = assay: Test B flood test smallflower flatsedge; type: in vivo, Cyperus difformis; details: Pre-emergence
Outline: as §2

duck salad = assay: Test B flood test duck salad; type: in vivo, Heteranthera limosa; details: Pre-emergence
Outline: as §2

bamyardgrass = assay: Test B flood test barnyardgrass; type: in vivo, Echinochloa crus-galli; details: Pre-emergence
Outline: as §2

[1] = Preemergence, Rate 62 g/ha, scale of 0 to 10 where 0 is no effect and 10 is complete control
[2] = Preemergence, Rate 500 g/ha, scale of 0 to 10 where 0 is no effect and 10 is complete control
[3] = Rate 62 g/ha, Postemergence, scale 0 to 10, 0 no effect, 10 complete control
[4] = Rate 125 g/ha, Postemergence, scale of 0 to 10 where 0 is no effect and 10 is complete control
[5] = Rate 250 g/ha, Postemergence, scale of 0 to 10 where 0 is no effect and 10 is complete control
[6] = Rate 500 g/ha, Postemergence, scale 0 to 10, 0 no effect, 10 complete control
[7] = Preemergence, Rate 250 g/ha, scale of 0 to 10 where 0 is no effect and 10 is complete control
[8] = Rate 1000 g/ha, scale 0 to 10 (0 no effect, 10 complete control)
[9] = Rate 125 g/ha, flood test species, scale 0 to 10 where 0 is no effect and 10 is complete control
[10] = Rate 250 g/ha, flood-test species, scale 0 to 10, 0 is no effect, 10 is complete control

For `CC(C)N(C(=O)n1oc(=O)n(CC2CCCC2)c1=O)c1ccc(F)cc1` [Compound 322], the “Bedstraw plant response rating” value (bedstraw; [1]) was 0, the “Bedstraw plant response rating (0 to 10 scale)” value (bedstraw; Preemergence, Rate 125 g/ha) was 0 and the “Bedstraw plant response rating” value (bedstraw; [2]) was 2. The “Bedstraw plant response rating” value (bedstraw; [3]) was 0, the “Bedstraw plant response rating” value (bedstraw; [4]) was 0 and the “Plant response rating, Bedstraw” value (bedstraw; [5]) was 4. The “Plant response rating, Bedstraw” value (bedstraw; [6]) was 4, the “Blackgrass plant response rating” value (blackgrass; [1]) was 0 and the “Blackgrass plant response rating (0 to 10 scale)” value (blackgrass; Preemergence, Rate 125 g/ha) was 0. The “Blackgrass plant response rating” value (blackgrass; [7]) was 5, the “Blackgrass plant response rating” value (blackgrass; [2]) was 7 and the “Blackgrass plant response rating” value (blackgrass; [3]) was 0. For the same compound, the “Blackgrass plant response rating” value (blackgrass; [4]) was 0, the “Plant response rating, Blackgrass” value (blackgrass; [5]) was 1 and the “Plant response rating, Blackgrass” value (blackgrass; [6]) was 8. The “B. signalgrass plant response rating” value (surinam grass; [1]) was 0, the “B. signalgrass plant response rating (0 to 10 scale, 0 is no effect, 10 is complete control)” value (surinam grass; Preemergence, Rate 125 g/ha) was 0 and the “B. signalgrass plant response rating” value (surinam grass; [7]) was 1. The “B. signalgrass plant response rating” value (surinam grass; [2]) was 3, the “B. signalgrass plant response rating” value (surinam grass; [3]) was 0 and the “B. signalgrass plant response rating” value (surinam grass; [4]) was 0. The “Plant response rating, B. signalgrass” value (surinam grass; [5]) was 0, the “Plant response rating, B. signalgrass” value (surinam grass; [6]) was 3 and the “Cocklebur plant response rating” value (cocklebur; [1]) was 0. For the same compound, the “Cocklebur plant response rating (0 to 10 scale)” value (cocklebur; Preemergence, Rate 125 g/ha) was 0, the “Cocklebur plant response rating” value (cocklebur; [7]) was 0 and the “Cocklebur plant response rating” value (cocklebur; [2]) was 4. For the same compound, the “Cocklebur plant response rating” value (cocklebur; [3]) was 0, the “Cocklebur plant response rating” value (cocklebur; [4]) was 0 and the “Plant response rating, Cocklebur” value (cocklebur; [5]) was 0. For the same compound, the “Plant response rating, Cocklebur” value (cocklebur; [6]) was 4, the “Corn plant response rating” value (corn; [1]) was 0 and the “Corn plant response rating (0 to 10 scale)” value (corn; Preemergence, Rate 125 g/ha) was 0. The “Corn plant response rating” value (corn; [7]) was 0, the “Corn plant response rating” value (corn; [2]) was 0 and the “Corn plant response rating” value (corn; [3]) was 0. The “Corn plant response rating” value (corn; [4]) was 0, the “Plant response rating, Corn” value (corn; [5]) was 0 and the “Plant response rating, Corn” value (corn; [6]) was 0. For the same compound, the “Crabgrass plant response rating” value (crabgrass; [1]) was 1, the “Crabgrass plant response rating (0 to 10 scale)” value (crabgrass; Preemergence, Rate 125 g/ha) was 2 and the “Crabgrass plant response rating” value (crabgrass; [7]) was 5. For the same compound, the “Crabgrass plant response rating” value (crabgrass; [2]) was 7, the “Crabgrass plant response rating” value (crabgrass; [3]) was 0 and the “Crabgrass plant response rating” value (crabgrass; [4]) was 0. For the same compound, the “Plant response rating, Crabgrass” value (crabgrass; [5]) was 2, the “Plant response rating, Crabgrass” value (crabgrass; [6]) was 5 and the “Rape plant response rating” value (rape; [1]) was 0. The “Rape plant response rating (0 to 10 scale)” value (rape; Preemergence, Rate 125 g/ha) was 0, the “Rape plant response rating” value (rape; [7]) was 0 and the “Rape plant response rating” value (rape; [2]) was 2. For the same compound, the “Rape plant response rating” value (rape; [3]) was 0, the “Rape plant response rating” value (rape; [4]) was 0 and the “Plant response rating, Rape” value (rape; [5]) was 0. The “Plant response rating, Rape” value (rape; [6]) was 0, the “Soybean plant response rating” value (soybean; [1]) was 0 and the “Soybean plant response rating (0 to 10 scale)” value (soybean; Preemergence, Rate 125 g/ha) was 0. The “Soybean plant response rating” value (soybean; [7]) was 0, the “Soybean plant response rating” value (soybean; [2]) was 0 and the “Soybean plant response rating” value (soybean; [3]) was 1. The “Soybean plant response rating” value (soybean; [4]) was 3, the “Plant response rating, Soybean” value (soybean; [5]) was 4 and the “Plant response rating, Soybean” value (soybean; [6]) was 5. For the same compound, the “Sugarbeets plant response rating” value (sugar beet; [1]) was 0, the “Sugarbeets plant response rating (0 to 10 scale)” value (sugar beet; Preemergence, Rate 125 g/ha) was 2 and the “Sugarbeets plant response rating” value (sugar beet; [7]) was 2. For the same compound, the “Sugarbeets plant response rating” value (sugar beet; [2]) was 4, the “Sugarbeets plant response rating” value (sugar beet; [3]) was 0 and the “Sugarbeets plant response rating” value (sugar beet; [4]) was 0. For the same compound, the “Plant response rating, Sugarbeets” value (sugar beet; [5]) was 0, the “Plant response rating, Sugarbeets” value (sugar beet; [6]) was 2 and the “Velvetleaf plant response rating” value (velvetleaf; [1]) was 0. For the same compound, the “Velvetleaf plant response rating (0 to 10 scale)” value (velvetleaf; Preemergence, Rate 125 g/ha) was 0, the “Velvetleaf plant response rating” value (velvetleaf; [7]) was 0 and the “Velvetleaf plant response rating” value (velvetleaf; [2]) was 0. For the same compound, the “Velvetleaf plant response rating” value (velvetleaf; [3]) was 0, the “Velvetleaf plant response rating” value (velvetleaf; [4]) was 0 and the “Plant response rating, Velvetleaf” value (velvetleaf; [5]) was 0. The “Plant response rating, Velvetleaf” value (velvetleaf; [6]) was 2, the “Wheat plant response rating” value (wheat; [1]) was 0 and the “Wheat plant response rating (0 to 10 scale)” value (wheat; Preemergence, Rate 125 g/ha) was 0. For the same compound, the “Wheat plant response rating” value (wheat; [7]) was 0, the “Wheat plant response rating” value (wheat; [2]) was 0 and the “Wheat plant response rating” value (wheat; [3]) was 0. The “Wheat plant response rating” value (wheat; [4]) was 0, the “Plant response rating, Wheat” value (wheat; [5]) was 0 and the “Plant response rating, Wheat” value (wheat; [6]) was 3. For the same compound, the “Wild oats plant response rating” value (wild oat; [1]) was 0, the “Wild oats plant response rating (0 to 10 scale)” value (wild oat; Preemergence, Rate 125 g/ha) was 0 and the “Wild oats plant response rating” value (wild oat; [7]) was 2. For the same compound, the “Wild oats plant response rating” value (wild oat; [2]) was 3, the “Wild oats plant response rating” value (wild oat; [3]) was 0 and the “Wild oats plant response rating” value (wild oat; [4]) was 0. For the same compound, the “Plant response rating, Wild oats” value (wild oat; [5]) was 0, the “Plant response rating, Wild oats” value (wild oat; [6]) was 2 and the “Nutsedge plant response rating” value (purple nutsedge; [1]) was 0. For the same compound, the “Nutsedge plant response rating (0 to 10 scale)” value (purple nutsedge; Preemergence, Rate 125 g/ha) was 0, the “Nutsedge plant response rating” value (purple nutsedge; [7]) was 0 and the “Nutsedge plant response rating” value (purple nutsedge; [2]) was 0. For the same compound, the “Nutsedge plant response rating” value (purple nutsedge; [3]) was 0, the “Nutsedge plant response rating” value (purple nutsedge; [4]) was 0 and the “Plant response rating, Nutsedge” value (purple nutsedge; [5]) was 0. The “Plant response rating, Nutsedge” value (purple nutsedge; [6]) was 0, the “Rice plant response rating” value (rice; [8]) was 0 and the “Rice plant response rating” value (rice; [9]) was 0. The “Rice plant response rating” value (rice; [10]) was 0, the “S. Flatsedge plant response rating” value (smallflower flatsedge; [8]) was 0 and the “S. Flatsedge plant response rating” value (smallflower flatsedge; [9]) was 0. For the same compound, the “S. Flatsedge plant response rating” value (smallflower flatsedge; [10]) was 0, the “Ducksalad plant response rating” value (duck salad; [8]) was 0 and the “Ducksalad plant response rating” value (duck salad; [9]) was 0. The “Ducksalad plant response rating” value (duck salad; [10]) was 0, the “Barnyardgrass plant response rating” value (bamyardgrass; [8]) was 9 and the “Barnyardgrass plant response rating” value (bamyardgrass; [9]) was 3. For the same compound, the “Barnyardgrass plant response rating” value (bamyardgrass; [10]) was 7.
